This is an account of results in publication PMC8218531 (Structure (London, England : 1993), 2021).

For one assay, the system named is M^pro. To be noted: covalent inhibitors, ref Dai et al., 2020, Ma et al., Qiao et al., 2021; cited from earlier work.
The target of assay [1] is T1, SARS-CoV-2 M^pro (Severe acute respiratory syndrome coronavirus 2, UniProt P0DTD1). To be noted: cited from earlier work.
Assay [2] addresses T1, SARS-CoV-2 M^pro. Nature of the assay: Enzyme kinetics of M^pro with inhibitors. The format is biochemical. To be noted: for in vitro activity against M^pro in words: compounds of this study with hydrophilic groups in S4.

Like-named read-outs stand apart in the source and are kept apart here.

Consider `CC(C)C[C@H](NC(=O)OCc1ccccc1)C(=O)N[C@@H](CC1CCNC1=O)C(O)S(=O)(=O)[O-].[Na+]` (some centres unmarked) [GC-376], for which the IC50 in words entry in the assay with M^pro is “Low-nanomolar”.
A word on the IC50: it is the midpoint of a concentration-inhibition curve. For `N#Cc1ccccc1-c1cc(-c2ccccn2)cn(-c2ccccc2)c1=O` [Perampanel, perampanel], the half-maximal inhibitory concentration (IC50) at SARS-CoV-2 M^pro [1] was 100 to 250 µM.
With `CC(C)(O)CCOc1cc(Cl)cc(-c2cc(-c3c[nH]c(=O)[nH]c3=O)cn(-c3cccnc3)c2=O)c1` [Compound 29, 5-(3-(3-Chloro-5-(3-hydroxy-3-methylbutoxy)phenyl)-2-oxo-2H-[1,3'-bipyridin]-5-yl) pyrimidine-2,4(1H,3H)-dione], on SARS-CoV-2 M^pro [2], the concentration for half-maximal inhibition (IC50) lay in the range of 0.25 to 0.5 µM and the “in vitro activity against M^pro in words” value is listed as “high-nanomolar range”. Also, the “decrease in activity compared with 11” value at SARS-CoV-2 M^pro [2] (compared with compound 11) is given as “greater than 2 fold”.
`O=CC(CC1CCNC1=O)NC(=O)C(CC1CCCCC1)NC(=O)c1cc2ccccc2[nH]1` (centres unmarked) [Compound 11a]: the IC50 in words entry in the assay with M^pro is “Low-nanomolar”.
Turning to `O=C1CN(CCOc2cc(Cl)cc(-c3cc(-c4c[nH]c(=O)[nH]c4=O)cn(-c4cccnc4)c3=O)c2)CCN1` [Compound 50, 5-(3-(3-Chloro-5-(2-(3-oxopiperazin-1-yl)ethoxy)phenyl)-2-oxo-2H-[1,3'-bipyridin]-5-yl) pyrimidine-2,4(1H,3H)-dione], the “in vitro activity against M^pro in words” value on SARS-CoV-2 M^pro [2] is “high-nanomolar range”.
With `O=CC(CC1CCNC1=O)NC(=O)C(Cc1cccc(F)c1)NC(=O)c1cc2ccccc2[nH]1` (centres unmarked) [Compound 11b], the IC50 in words result in the assay with M^pro is on record as “Low-nanomolar”.
